This is an account of results in patent US7115611B2, “Phenyl derivatives, their manufacture and use as pharmaceutical agents” (Hoffmann-la Roche Inc., priority 2003, dated 2006).

Structures are written as SMILES.

Broadly, the melting point is the temperature, or range, at which the solid turns liquid. The compound `Cc1cc(OCc2ccc(-c3ccc(C(F)(F)F)cc3)nc2)ccc1OC(C)(C)C(=O)O` [Example 9, 2-Methyl-2-{2-methyl-4-[6-(4-trifluoromethyl-phenyl)-pyridin-3-ylmethoxy]-phenoxy}-propionic acid] registered a melting point of 149 to 151 °C.
To `Cc1cc(OCc2ccc(-c3ccc(OC(F)(F)F)cc3)nc2)ccc1OC(C)(C)C(=O)O` [Example 10, 2-Methyl-2-{2-methyl-4-[6-(4-trifluoromethoxy-phenyl)-pyridin-3-ylmethoxy]-phenoxy}-propionic acid] belongs 146 to 148 °C; to `Cc1cc(OCc2cnc(-c3ccc(C(F)(F)F)nc3)nc2CCO)ccc1OC(C)(C)C(=O)O` [Example 103, 2-{4-[4-(2-Hydroxy-ethyl)-2-(6-trifluoromethyl-pyridin-3-yl)-pyrimidin-5-ylmethoxy]-2-methyl-phenoxy}-2-methyl-propionic acid], 187 to 188 °C (dec.).
With `COCc1nc(-c2ccc(C(F)(F)F)cc2)ncc1COc1ccc(OC(C)(C)C(=O)O)c(C)c1` [Example 104, 2-{4-[4-Methoxymethyl-2-(4-trifluoromethyl-phenyl)-pyrimidin-5-ylmethoxy]-2-methyl-phenoxy}-2-methyl-propionic acid] the figure was 120 to 121 °C.
With `Cc1cc(OCc2cnc(-c3ccc(C(F)(F)F)cc3)nc2CCO)ccc1OC(C)(C)C(=O)O` [Example 110, 2-{4-[4-(2-Hydroxy-ethyl)-2-(4-trifluoromethyl-phenyl)-pyrimidin-5-ylmethoxy]-2-methyl-phenoxy}-2-methyl-propionic acid] the figure was 155 to 155.5 °C; with `COCCc1nc(-c2ccc(C(F)(F)F)nc2)ncc1COc1ccc(OC(C)(C)C(=O)O)c(C)c1` [Example 102, 2-{4-[4-(2-Methoxy-ethyl)-2-(6-trifluoromethyl-pyridin-3-yl)-pyrimidin-5-ylmethoxy]-2-methyl-phenoxy}-2-methyl-propionic acid], 140.5 to 141.5 °C (dec.).
For `Cc1cc(OCc2cnc(-c3ccc(OC(F)(F)F)cc3)cc2Cl)ccc1OC(C)(C)C(=O)O` [Example 109, 2-{4-[4-Chloro-6-(4-trifluoromethoxy-phenyl)-pyridin-3-ylmethoxy]-2-methyl-phenoxy}-2-methyl-propionic acid], the melting point is 179 to 181 °C (dec.).
To `Cc1cc(OCc2ccc(-c3ccc(F)c(C(F)(F)F)c3)nc2C)ccc1OC(C)(C)C(=O)O` [Example 24, 2-{4-[6-(4-Fluoro-3-trifluoromethyl-phenyl)-2-methyl-pyridin-3-ylmethoxy]-2-methyl-phenoxy}-2-methyl-propionic acid] belongs 141 to 143 °C; to `COCc1nc(-c2ccc(C(F)(F)F)cc2)ccc1COc1ccc(OC(C)(C)C(=O)O)c(C)c1` [Example 45, 2-{4-[2-Methoxymethyl-6-(4-trifluoromethyl-phenyl)-pyridin-3-ylmethoxy]-2-methyl-phenoxy}-2-methyl-propionic acid], 121 to 122 °C; to `Cc1cc(OCc2ccc(-c3ccc(C(F)(F)F)c(F)c3)nc2C)ccc1OC(C)(C)C(=O)O` [Example 38, 2-{4-[6-(3-Fluoro-4-trifluoromethyl-phenyl)-2-methyl-pyridin-3-ylmethoxy]-2-methyl-phenoxy}-2-methyl-propionic acid], 175 to 176 °C.
With `Cc1cc(SC(C)c2ccc(-c3ccc(C(F)(F)F)cc3)nc2C)ccc1OCC(=O)O` (racemic) [Example 17, [rac]-(2-Methyl-4-{1-[2-methyl-6-(4-trifluoromethyl-phenyl)-pyridin-3-yl]-ethylsulfanyl}-phenoxy)-acetic acid] the figure was 115 to 117 °C; with `Cc1cc(OCc2ccc(-c3ccc(C(F)(F)F)cc3)nc2C)ccc1OC(C)(C)C(=O)O` [Example 34, 2-Methyl-2-{2-methyl-4-[2-methyl-6-(4-trifluoromethyl-phenyl)-pyridin-3-ylmethoxy]-phenoxy}-propionic acid], 164 to 165 °C; with `Cc1cc(SCc2cnc(-c3ccc(C(F)(F)F)cc3)nc2C2CC2)ccc1OC(C)(C)C(=O)O` [Example 144, 2-{4-[4-Cyclopropyl-2-(4-trifluoromethyl-phenyl)-pyrimidin-5-ylmethylsulfanyl]-2-methyl-phenoxy}-2-methyl-propionic acid], 129 to 131 °C.
With `CC(C)(Oc1ccc(OCc2cnc(-c3ccc(C(F)(F)F)cc3)nc2C2CC2)c(F)c1)C(=O)O` [Example 141, 2-{4-[4-Cyclopropyl-2-(4-trifluoromethyl-phenyl)-pyrimidin-5-ylmethoxy]-3-fluoro-phenoxy}-2-methyl-propionic acid] the figure was 177.5 to 178 °C; with `Cc1cc(N(C)Cc2ccc(-c3ccc(C(F)(F)F)cc3)nc2)ccc1OCC(=O)O` [Example 15, (2-Methyl-4-{methyl-[6-(4-trifluoromethyl-phenyl)-pyridin-3-ylmethyl]-amino}-phenoxy)-acetic acid], 199 °C.
Take `Cc1cc(OCc2cnc(-c3ccc(OC(F)(F)F)cc3)nc2C(F)(F)F)ccc1OC(C)(C)C(=O)O` [Example 111, 2-Methyl-2-{2-methyl-4-[2-(4-trifluoromethoxy-phenyl)-4-trifluoromethyl-pyrimidin-5-ylmethoxy]-phenoxy}-propionic acid]: the melting point was in the range of 153.5 to 154.5 °C.
The compound `Cc1cc(OCc2ccc(-c3ccc(C(F)(F)F)cc3)nn2)ccc1OC(C)(C)C(=O)O` [Example 44, 2-Methyl-2-{2-methyl-4-[6-(4-trifluoromethyl-phenyl)-pyridazin-3-ylmethoxy]-phenoxy]-propionic acid] showed a melting point of 191 to 192 °C.
For the compound `Cc1cc(SCc2cnc(-c3ccc(OC(F)(F)F)cc3)nc2C2CC2)ccc1OC(C)(C)C(=O)O` [Example 142, 2-{4-[4-Cyclopropyl-2-(4-trifluoromethoxy-phenyl)-pyrimidin-5-ylmethylsulfanyl]-2-methyl-phenoxy}-2-methyl-propionic acid], the melting point was 127 to 128 °C (dec.).
With `CCC(Sc1ccc(OCC(=O)O)c(C)c1)c1ccc(-c2ccc(C(F)(F)F)cc2)nc1C` (racemic) [Example 18, [rac]-(2-Methyl-4-{1-[2-methyl-6-(4-trifluoromethyl-phenyl)-pyridin-3-yl]-propylsulfanyl}-phenoxy)-acetic acid] the figure was 126 to 128 °C; with `Cc1cc(OCc2cnc(-c3ccc(C(F)(F)F)cc3)cc2C(F)(F)F)ccc1OC(C)(C)C(=O)O` [Example 108, 2-Methyl-2-{2-methyl-4-[4-trifluoromethyl-6-(4-trifluoromethyl-phenyl)-pyridin-3-ylmethoxy]-phenoxy}-propionic acid], 148 to 149 °C; with `Cc1cc(OCc2ccc(-c3ccc(C(F)(F)F)cc3)nc2C)ccc1SCC(=O)O` [Example 146, {2-Methyl-4-[2-methyl-6-(4-trifluoromethyl-phenyl)-pyridin-3-ylmethoxy]-phenylsulfanyl}-acetic acid], 168 to 169 °C.
To `Cc1cc(OCc2ccc(-c3ccc(OC(F)(F)F)cc3)nc2C2CC2)ccc1OC(C)(C)C(=O)O` [Example 145, 2-{4-[2-Cyclopropyl-6-(4-trifluoromethoxy-phenyl)-pyridin-3-ylmethoxy]-2-methyl-phenoxy}-2-methyl-propionic acid] belongs 131 to 133 °C.
